Measurements as given in patent publication US20090136470A1, “REGULATORY T CELLS AND METHODS OF MAKING AND USING SAME” (priority 2007, published 2009).

Key:
[1] = system: naïve CD4^+T cells from B7.1/2^−/− IL-2^+/+ or B7.1/2^−/− IL-2^−/− mice; assay: RA-mediated effects on T cell differentiation without IL-2 (anti-IL-2 or IL-2−/− T cells) or with exogenous IL-2; format: cell-based, mouse
Experimental: (§1) The culture medium used for dendritic cell-T cell cultures was Iscove's modified Dulbecco medium (IMDM) (Gibco, USA) supplemented with 10% heat-inactivated FCS, 2 mM L-glutamine, 100 U/ml penicillin, 100 μg/ml streptomycin, and 5 mM β-mercaptoethanol (all Sigma, USA). […] For dendritic cell-T cell cultures, 2×10^4 dendritic cells and 1×10^5 T cells were cultured in a volume of 200 μl (96-well plates). For irradiated APC-T cell cultures, 5×10^5 APCs and 1×10^5 T cells were cultured in a volume of 200 μl in 96-well plates (2×10^6 APCs and 0.5×10^6 T cells per well in 48-well plates). […] For the study shown in FIG. 4A, after sorting of naive CD4^+ cells (CD25^−CD44^lowCD62L^+), cells were washed twice in PBS+0.1% BSA, counted and labeled with 2 μM of CFSE (Carboxyfluorescein diacetate, succinimidyl ester) (Molecular Probes, USA) at a concentration of 5−10×10^6 cells per ml in PBS-0.1% BSA.
(§2) For Foxp3 staining, no stimulation with PMA/Ionomycin was performed, with the exceptions of FIGS. 8B and 9A.

[2] = system: CD4^+CD25^− spleen T cells; assay: Th-17 differentiation of CD4 T cells stimulated with dendritic cells or spleen APCs plus TGF-β and IL-6 (intracellular IL-17 staining, IL-17 ELISA); format: cell-based, mouse
Experimental: (§3) For CD4^+CD25^− T cell isolation, spleens were removed, teased into cell-single suspensions and filtered through a 70 μm cell strainer (Fisher Scientific, USA). CD4^+CD25^−T cells were isolated by negative selection after incubation with a mix of specific biotin-conjugated mAbs (anti-CD8, CD11b, CD11ε, CD25, CD45R (B220), NK1.1, and TER119) at 1/200 dilution, and anti-biotin magnetic microbeads (25-40 μl per spleen) (Miltenyi Biotec, USA).
(§4) For dendritic cells isolation, spleen and MLN were chopped and digested by collagenase type D (Roche, USA) for 30 min at room temperature. Digested tissues were treated with 5 mM of EDTA for additional 5 min and mashed through a 70 μm cell strainer. Subsequently, CD11c^+ cells were enriched by positive selection using anti-CD11c microbeads according to the manufacturer's protocol (Miltenyi Biotec, USA). Enriched populations were stained with CD45-APC, CD 11c-PE, I-A^b-FITC and TCR β and sorted for TCRβ^−CD45^+CD11c^+I-Ab^+ by flow cytometry using a FACS-DIVA cell sorter (USA).
as §1
To block non-specific staining, the 2.4G2 anti-CD16/32 antibody was added.

[3] = system: CD4^+CD25^−T cells; assay: TGF-β-dependent Foxp3 induction (Treg differentiation) in CD4 T cells with dendritic cells or APCs; format: cell-based, mouse
Experimental: as §3, §4, §1
For Foxp3 staining, no stimulation with PMA/Ionomycin was performed, with the exceptions of FIGS. 8B and 9A. […]

[4] = system: CD4^+CD25^−T cells; assay: CTLA-4, CD103, CCR9 and CD25 staining of CD4 T cells stimulated with spleen APCs plus TGF-β1 and/or RA; format: cell-based, mouse
Experimental: as §3
APCs were isolated from spleen of C57BL/6 mice by negative selection using CD90.2 (Thy1.2) magnetic microbeads to deplete T cells (Miltenyi Biotec).
as §1
To block non-specific staining, the 2.4G2 anti-CD16/32 antibody was added. […] For intracellular cytokine staining, cells obtained from in vitro cultures or isolated IELs were incubated for 4-5 hours with 50 ng/ml PMA, 750 ng/ml Ionomycin (both Sigma, USA) and 10 μg/ml Brefeldin A (Invitrogen, USA) in a tissue culture incubator at 37° C.

[5] = system: CD8^+T cells from OT-I TCR transgenic mice
Experimental: as §1, §2

CC1=C(/C=C/C(C)=C/C=C/C(C)=C/C(=O)O)C(C)(C)CCC1 [RA, All-trans retinoic acid]
requirement for exogenously added IL-2 [1]: did not require exogenously added IL-2 | CD103 phenotype of the Foxp3^+Tregs generated ([1]; TGF-β-dependent Foxp3 differentiation): mostly CD103^+Tregs | dependence of Foxp3^+ enhancing and Th-17 inhibitory effects on IL-2 ([1]; anti-IL-2 (20 μg/ml) or IL-2−/− T cells): for the most part dependent on IL-2 | IL-17 cytokine secretion (ELISA) ([1]; culture supernatants): measurably decreased | antagonistic effect on IL-6 (Foxp3 versus IL-17) ([2]; TGF-β 5 ng/ml, varied concentrations of IL-6 and RA): dose dependent | Foxp3 / Th-17 differentiation of CD4 T cells under conditions that promote Th-17 differentiation ([2]; TNF-α, IL-1-β, TGF-β and IL-6 plus RA): converted to Foxp3^+ cells with a decrease in Th-17 differentiation | Th-17 differentiation by spleen dendritic cells ([2]; added to cultures with TGF-β and IL-6, 100 nM): inhibited the Th-17 differentiation by spleen dendritic cells | TGF-β-dependent Foxp3 induction by MLN dendritic cells ([3]; OT-II CD4 cells, OVAp, TGF-β1, LE135 1 μM, RA 100 nM): enhanced | TGF-β-dependent Foxp3 induction under low amounts of TGF-β ([3]; TGF-β 0.5 ng/ml, TCR-transgenic CD4 cells): still enhances | expression of CTLA-4 on TGF-β-generated Foxp3^+ cells [4]: promoted the expression of CTLA-4 | induction of CTLA-4 on Foxp3^− and Foxp3^+ activated cells (early) ([4]; OT-II CD4 T cells, spleen APCs, TGF-β and RA): delayed | CTLA-4 and Foxp3 phenotype of the majority of cells at later time-points ([4]; OT-II CD4 T cells, spleen APCs, cultured with TGF-β and RA): both CTLA-4 and Foxp3^+ | TGF-β-mediated CD103 expression on CD4 cells ([4]; soluble α-CD3ε, spleen APCs, TGF-β1): greatly enhanced | CD103 expression on CD8 cells ([5]; TGF-β and RA): synergized to upregulate CD103 expression | CD25 expression of CD8 T cells upon in vitro activation ([5]; in the presence of TGF-β and RA): down-regulate CD25 expression
